Test results: patent US7091202B2, “4-arylspirocycloalkyl-2-aminopyrimidine carboxamide KCNQ potassium channel modulators” (Bristol-Myers Squibb Company, priority 2004, dated 2006)

These compounds were tested against T1, hQ23 (HEK-293 cell line stably transfected with one of the members of the KCNQ family) (Homo sapiens, UniProt O43525+O43526) (assay: Thallium flux assay for KCNQ channel blockers (FLIPR, BTC dye)). Conditions: hQ23 cells, thallium flux assay.
T1 construct: expressed in transfected cells; host or cells: HEK-293, stably transfected
T1 sequence (O43526 whole entry): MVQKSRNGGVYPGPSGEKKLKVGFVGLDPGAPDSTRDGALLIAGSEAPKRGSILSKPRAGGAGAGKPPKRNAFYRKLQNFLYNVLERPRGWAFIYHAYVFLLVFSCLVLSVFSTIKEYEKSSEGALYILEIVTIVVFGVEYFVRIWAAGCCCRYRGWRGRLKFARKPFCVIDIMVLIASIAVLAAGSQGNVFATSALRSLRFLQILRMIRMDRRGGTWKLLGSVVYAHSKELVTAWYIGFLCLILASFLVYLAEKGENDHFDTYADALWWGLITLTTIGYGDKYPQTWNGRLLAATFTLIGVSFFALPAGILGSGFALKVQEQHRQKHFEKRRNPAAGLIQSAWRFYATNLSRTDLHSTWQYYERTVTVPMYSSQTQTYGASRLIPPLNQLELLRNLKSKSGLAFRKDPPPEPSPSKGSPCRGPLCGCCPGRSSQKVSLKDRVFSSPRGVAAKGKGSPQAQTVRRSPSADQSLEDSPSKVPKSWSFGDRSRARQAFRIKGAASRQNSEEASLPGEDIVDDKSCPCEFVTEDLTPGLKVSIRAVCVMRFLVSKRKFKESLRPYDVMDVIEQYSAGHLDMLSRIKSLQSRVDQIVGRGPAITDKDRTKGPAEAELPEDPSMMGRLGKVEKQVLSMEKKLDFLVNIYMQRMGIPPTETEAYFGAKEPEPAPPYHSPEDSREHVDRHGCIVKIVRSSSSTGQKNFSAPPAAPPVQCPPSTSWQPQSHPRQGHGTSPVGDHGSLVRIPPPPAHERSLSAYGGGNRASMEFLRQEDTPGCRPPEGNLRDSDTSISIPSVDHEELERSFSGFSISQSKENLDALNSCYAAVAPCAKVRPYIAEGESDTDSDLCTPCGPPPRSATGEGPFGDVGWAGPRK
T1 sequence (O43525 whole entry): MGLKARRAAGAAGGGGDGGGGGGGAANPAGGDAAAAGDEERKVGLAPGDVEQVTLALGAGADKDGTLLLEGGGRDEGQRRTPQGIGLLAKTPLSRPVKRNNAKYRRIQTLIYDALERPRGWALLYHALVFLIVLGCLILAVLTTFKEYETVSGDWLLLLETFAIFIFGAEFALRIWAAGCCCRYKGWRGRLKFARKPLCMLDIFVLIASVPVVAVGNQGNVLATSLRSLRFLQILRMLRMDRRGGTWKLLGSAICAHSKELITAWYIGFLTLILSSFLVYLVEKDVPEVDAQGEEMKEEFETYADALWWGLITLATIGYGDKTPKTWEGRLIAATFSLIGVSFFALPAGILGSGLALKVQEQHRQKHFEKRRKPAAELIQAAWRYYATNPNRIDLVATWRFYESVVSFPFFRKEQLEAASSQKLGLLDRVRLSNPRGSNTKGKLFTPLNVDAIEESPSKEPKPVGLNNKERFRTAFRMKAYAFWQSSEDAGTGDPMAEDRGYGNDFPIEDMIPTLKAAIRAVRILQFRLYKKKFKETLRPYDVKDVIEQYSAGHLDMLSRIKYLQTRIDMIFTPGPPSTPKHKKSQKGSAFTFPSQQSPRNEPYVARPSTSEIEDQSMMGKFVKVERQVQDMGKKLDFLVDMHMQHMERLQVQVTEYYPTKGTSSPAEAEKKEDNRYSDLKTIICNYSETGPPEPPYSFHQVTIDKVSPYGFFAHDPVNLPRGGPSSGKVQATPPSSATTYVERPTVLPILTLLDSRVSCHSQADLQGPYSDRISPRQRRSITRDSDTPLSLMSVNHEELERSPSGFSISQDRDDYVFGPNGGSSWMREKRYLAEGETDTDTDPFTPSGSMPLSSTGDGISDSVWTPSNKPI
Format: cell-based
How it was run: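 HEK-293 cells stably expressing a KCNQ member, loaded with BTC-AM (2 μM) in chloride-free buffer, pH 7.3; compounds added at 1% DMSO, then Tl2SO4 stimulus on FLIPR (488/540 nm, 60 s). Minimal active concentration set at ≥4 SD above negative control; IC50 from 10-point 1:3 series, single-site logistic fit versus the positive-control blocker.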

Row | Structure (SMILES) | EC50 [nM]
1 | CC(NC(=O)c1cnc(N2CCCC2)nc1C1(c2ccc(F)cc2)CCCC1)c1cccc2ccccc12 (stereo not shown) [Example 242, 5-pyrimidinecarboxamide, 4-[1-(4-fluorophenyl)cyclopentyl]-N-[1-(1-naphthalenyl)ethyl]-2-(1-pyrrolidinyl)-] | 34
2 | CC(NC(=O)c1cnc(N2CCN(C)CC2)nc1C1(c2ccc(F)cc2)CCCC1)c1cccc2ccccc12 (stereo not shown) [Example 243, 5-pyrimidinecarboxamide, 4-[1-(4-fluorophenyl)cyclopentyl]-2-(4-methyl-1-piperazinyl)-N-[1-(1-naphthalenyl)ethyl]-] | 852
3 | CC1CCCN(c2ncc(C(=O)NC(C)c3cccc4ccccc34)c(C3(c4ccc(F)cc4)CCCC3)n2)C1 (stereo not shown) [Example 244, 5-pyrimidinecarboxamide, 4-[1-(4-fluorophenyl)cyclopentyl]-2-(3-methyl-1-piperidinyl)-N-[1-(1-naphthalenyl)ethyl]-] | 10
4 | CC(NC(=O)c1cnc(NC2CCCC2)nc1C1(c2ccc(F)cc2)CCCC1)c1cccc2ccccc12 (stereo not shown) [Example 247, 5-pyrimidinecarboxamide, 2-(cyclopentylamino)-4-[1-(4-fluorophenyl)cyclopentyl]-N-[1-(1-naphthalenyl)ethyl]-] | 92
5 | CC1CCCN(c2ncc(C(=O)NCc3cccc4ccccc34)c(C3(c4ccc(F)cc4)CCCC3)n2)C1 (stereo not shown) [Example 250, 5-pyrimidinecarboxamide, 4-[1-(4-fluorophenyl)cyclopentyl]-2-(3-methyl-1-piperidinyl)-N-(1-naphthalenylmethyl)-] | 10
6 | CCC(C)Nc1ncc(C(=O)NCc2cccc3ccccc23)c(C2(c3ccc(F)cc3)CCCC2)n1 (stereo not shown) [Example 252, 5-pyrimidinecarboxamide, 4-[1-(4-fluorophenyl)cyclopentyl]-2-[(1-methylpropyl)amino]-N-(1-naphthalenylmethyl)-] | 350
7 | O=C(NCc1cccc2ccccc12)c1cnc(NC2CCCC2)nc1C1(c2ccc(F)cc2)CCCC1 [Example 253, 5-pyrimidinecarboxamide, 2-(cyclopentylamino)-4-[1-(4-fluorophenyl)cyclopentyl]-N-(1-naphthalenylmethyl)-] | 183
8 | CN1CCN(c2ncc(C(=O)NCc3ccc(Cl)c(Cl)c3)c(C3(c4ccc(F)cc4)CCCC3)n2)CC1 [Example 254, 5-pyrimidinecarboxamide, N-[(3,4-dichlorophenyl)methyl]-4-[1-(4-fluorophenyl)cyclopentyl]-2-(4-methyl-1-piperazinyl)-] | 529
9 | CC1CCCN(c2ncc(C(=O)NCc3ccc(Cl)c(Cl)c3)c(C3(c4ccc(F)cc4)CCCC3)n2)C1 (stereo not shown) [Example 255, 5-pyrimidinecarboxamide, N-[(3,4-dichlorophenyl)methyl]-4-[1-(4-fluorophenyl)cyclopentyl]-2-(3-methyl-1-piperidinyl)-] | 10
10 | O=C(NCc1ccc(Cl)cc1Cl)c1cnc(NC2CC2)nc1C1(c2ccc(F)cc2)CCCC1 [Example 259, 5-pyrimidinecarboxamide, 2-(cyclopropylamino)-N-[(2,4-dichlorophenyl)methyl]-4-[1-(4-fluorophenyl)cyclopentyl]-] | 869
11 | CC1CCC(Nc2ncc(C(=O)NCc3ccc(Cl)cc3Cl)c(C3(c4ccc(F)cc4)CCCC3)n2)CC1 (stereo not shown) [Example 260, 5-pyrimidinecarboxamide, N-[(2,4-dichlorophenyl)methyl]-4-[1-(4-fluorophenyl)cyclopentyl]-2-[(4-methylcyclohexyl)amino]-] | 10
12 | CN1CCC(N(C)c2ncc(C(=O)NCc3ccc(Cl)cc3Cl)c(C3(c4ccc(F)cc4)CCCC3)n2)CC1 [Example 264, 5-pyrimidinecarboxamide, N-[(2,4-dichlorophenyl)methyl]-4-[1-(4-fluorophenyl)cyclopentyl]-2-[methyl(1-methyl-4-piperidinyl)amino]-] | 282
13 | CCC(C)Nc1ncc(C(=O)NCc2ccc(Cl)cc2Cl)c(C2(c3ccc(F)cc3)CCCC2)n1 (stereo not shown) [Example 265, 5-pyrimidinecarboxamide, N-[(2,4-dichlorophenyl)methyl]-4-[1-(4-fluorophenyl)cyclopentyl]-2-[(1-methylpropyl)amino]-] | 138
14 | O=C(NCc1ccc(Cl)cc1Cl)c1cnc(NC2CCCC2)nc1C1(c2ccc(F)cc2)CCCC1 [Example 266, 5-pyrimidinecarboxamide, 2-(cyclopentylamino)-N-[(2,4-dichlorophenyl)methyl]-4-[1-(4-fluorophenyl)cyclopentyl]-] | 27
15 | CC1CCN(c2ncc(C(=O)NCc3ccc(F)cc3F)c(C3(c4ccc(F)cc4)CCCC3)n2)CC1 [Example 270, 5-pyrimidinecarboxamide, N-[(2,4-difluorophenyl)methyl]-4-[1-(4-fluorophenyl)cyclopentyl]-2-(4-methyl-1-piperidinyl)-] | 142
16 | CN1CCC(N(C)c2ncc(C(=O)NCc3ccc(F)cc3F)c(C3(c4ccc(F)cc4)CCCC3)n2)CC1 [Example 271, 5-pyrimidinecarboxamide, N-[(2,4-difluorophenyl)methyl]-4-[1-(4-fluorophenyl)cyclopentyl]-2-[methyl(1-methyl-4-piperidinyl)amino]-] | 532

Further compounds by falling EC50, results first:

Row | EC50 [nM] | Structure (SMILES)
17 | 967 | CN(C)CCNc1ncc(C(=O)NCc2ccc(F)cc2F)c(C2(c3ccc(F)cc3)CCCC2)n1 [Example 272, 5-pyrimidinecarboxamide, N-[(2,4-difluorophenyl)methyl]-2-[[2-(dimethylamino)ethyl]amino]-4-[1-(4-fluorophenyl)cyclopentyl]-]
18 | 904 | CN(C)CCNc1ncc(C(=O)NCc2ccc(Cl)c(Cl)c2)c(C2(c3ccc(F)cc3)CCCC2)n1 [Example 257, 5-pyrimidinecarboxamide, N-[(3,4-dichlorophenyl)methyl]-2-[[2-(dimethylamino)ethyl]amino]-4-[1-(4-fluorophenyl)cyclopentyl]-]
19 | 634 | CN1CCN(c2ncc(C(=O)NCc3ccc(F)cc3F)c(C3(c4ccc(F)cc4)CCCC3)n2)CC1 [Example 268, 5-pyrimidinecarboxamide, N-[(2,4-difluorophenyl)methyl]-4-[1-(4-fluorophenyl)cyclopentyl]-2-(4-methyl-1-piperazinyl)-]
20 | 278 | O=C(NCc1cccc2ccccc12)c1cnc(N2CCCC2)nc1C1(c2ccc(F)cc2)CCCC1 [Example 249, 5-pyrimidinecarboxamide, 4-[1-(4-fluorophenyl)cyclopentyl]-N-(1-naphthalenylmethyl)-2-(1-pyrrolidinyl)-]
21 | 177 | CCC(C)Nc1ncc(C(=O)NC(C)c2cccc3ccccc23)c(C2(c3ccc(F)cc3)CCCC2)n1 (stereo not shown) [Example 246, 5-pyrimidinecarboxamide, 4-[1-(4-fluorophenyl)cyclopentyl]-2-[(1-methylpropyl)amino]-N-[1-(1-naphthalenyl)ethyl]-]
22 | 115 | O=C(NCc1ccc(F)cc1F)c1cnc(NC2CCCC2)nc1C1(c2ccc(F)cc2)CCCC1 [Example 273, 5-pyrimidinecarboxamide, 2-(cyclopentylamino)-N-[(2,4-difluorophenyl)methyl]-4-[1-(4-fluorophenyl)cyclopentyl]-]
23 | 91 | O=C(NCc1ccc(Cl)c(Cl)c1)c1cnc(NC2CCCC2)nc1C1(c2ccc(F)cc2)CCCC1 [Example 258, 5-pyrimidinecarboxamide, 2-(cyclopentylamino)-N-[(3,4-dichlorophenyl)methyl]-4-[1-(4-fluorophenyl)cyclopentyl]-]
24 | 56 | CC1CCCN(c2ncc(C(=O)NCc3ccc(F)cc3F)c(C3(c4ccc(F)cc4)CCCC3)n2)C1 (stereo not shown) [Example 269, 5-pyrimidinecarboxamide, N-[(2,4-difluorophenyl)methyl]-4-[1-(4-fluorophenyl)cyclopentyl]-2-(3-methyl-1-piperidinyl)-]
25 | 48 | CC1CCC(Nc2ncc(C(=O)NCc3ccc(F)cc3F)c(C3(c4ccc(F)cc4)CCCC3)n2)CC1 (stereo not shown) [Example 267, 5-pyrimidinecarboxamide, N-[(2,4-difluorophenyl)methyl]-4-[1-(4-fluorophenyl)cyclopentyl]-2-[(4-methylcyclohexyl)amino]-]
26 | 28 | O=C(NCc1ccc(Cl)cc1Cl)c1cnc(N2CCCC2)nc1C1(c2ccc(F)cc2)CCCC1 [Example 261, 5-pyrimidinecarboxamide, N-[(2,4-dichlorophenyl)methyl]-4-[1-(4-fluorophenyl)cyclopentyl]-2-(1-pyrrolidinyl)-]
27 | 15 | CC1CCN(c2ncc(C(=O)NCc3cccc4ccccc34)c(C3(c4ccc(F)cc4)CCCC3)n2)CC1 [Example 251, 5-pyrimidinecarboxamide, 4-[1-(4-fluorophenyl)cyclopentyl]-2-(4-methyl-1-piperidinyl)-N-(1-naphthalenylmethyl)-]
28 | 10 | CC1CCN(c2ncc(C(=O)NC(C)c3cccc4ccccc34)c(C3(c4ccc(F)cc4)CCCC3)n2)CC1 (stereo not shown) [Example 245, 5-pyrimidinecarboxamide, 4-[1-(4-fluorophenyl)cyclopentyl]-2-(4-methyl-1-piperidinyl)-N-[1-(1-naphthalenyl)ethyl]-]
29 | 10 | CC1CCC(Nc2ncc(C(=O)NCc3cccc4ccccc34)c(C3(c4ccc(F)cc4)CCCC3)n2)CC1 (stereo not shown) [Example 248, 5-pyrimidinecarboxamide, 4-[1-(4-fluorophenyl)cyclopentyl]-2-[(4-methylcyclohexyl)amino]-N-(1-naphthalenylmethyl)-]
30 | 10 | CC1CCN(c2ncc(C(=O)NCc3ccc(Cl)c(Cl)c3)c(C3(c4ccc(F)cc4)CCCC3)n2)CC1 [Example 256, 5-pyrimidinecarboxamide, N-[(3,4-dichlorophenyl)methyl]-4-[1-(4-fluorophenyl)cyclopentyl]-2-(4-methyl-1-piperidinyl)-]
31 | 10 | CC1CCCN(c2ncc(C(=O)NCc3ccc(Cl)cc3Cl)c(C3(c4ccc(F)cc4)CCCC3)n2)C1 (stereo not shown) [Example 262, 5-pyrimidinecarboxamide, N-[(2,4-dichlorophenyl)methyl]-4-[1-(4-fluorophenyl)cyclopentyl]-2-(3-methyl-1-piperidinyl)-]
